Measured values: patent US20130210765A1, “HYALURONIC ACID CONTAINING PHARMACEUTICAL OR VETERINARY COMPOSITIONS” (priority 2004, published 2013)

System: lameness in horses
Test: double-blind placebo controlled crossover clinical trial on lameness in horses
Type: in vivo
Protocol: A crossover double blind and randomised study was designed to evaluate the efficacy of GLM lipid extract and HA alone and in combination in the treatment of lameness in horses.
Qualifying horses were initially examined and randomly assigned to receive four capsules of the placebo, or containing 50 mg GLM, or 50 mg Hyaluronate, or a mixture of 50 mg GLM and 50 mg Hyaluronate daily. Randomisation was computer generated in balanced blocks of the four treatment regimes and was crossover in design. No other medications were administered.
Evaluations of arthritic/musculoskeletal signs were carried out by a veterinarian and research assistant at wk 0 and every two weeks thereafter until the end of the trial. All parameters were scored on a scale of 1 to 10 according to severity and symptom improvement where 1 was severe disease symptomology and 10 indicated a disease free condition score and the results are shown in Table 1 and FIG. 4.
Each horse was scored for mobility (average of individual scores for lameness in walking, trotting, turning and any other musculoskeletal abnormality). Individual joints (neck, back, carpus, elbow and shoulder or tarsus, stifle and hip) of each limb were individually scored for degree of pain, swelling, crepitus and reduction in range of movement. Horses were also filmed for gait analysis and scored. Summation of the mobility score and all individual joint scores for each horse comprised their total arthritic/musculoskeletal score.

## Hyaluronic acid [Hyaluronate]
Four capsules daily, 14 days, scale 1 (severe) to 10 (disease free), Mean ± SEM
  mean clinical lameness score, Mid Phase 14 Days: 2.6 ± 0.47^be
Four capsules daily, 28 days, scale 1 (severe) to 10 (disease free), Mean ± SEM
  mean clinical lameness score, End Phase 28 Days: 2.8 ± 0.48^ef
Within 2 weeks / 14 days of treatment
  effect on degree of lameness / locomotory score (in words): little influence on it own
